Tests used:
Na+/H+ exchanger (NHE) = test: NHE activity: Na+-dependent pHi recovery after NH4Cl acid pulse in BCECF-loaded SKNMC-H3 cells; format: cell-based, human
SH-SY5Y-H3 cells [1] = test: Cai measurements (Fura-2) in K+-depolarized H3R-transfected SH-SY5Y-H3 cells; format: cell-based, human
[2] = tested on: guinea-pig heart synaptosomes; format: cell-based
SH-SY5Y cells [3] = format: cell-based, human
H3R = H3R (Homo sapiens, UniProt Q9Y5N1); details: read-out: EC50 to activate the H3R; cited from earlier work
SH-SY5Y-H3 cells [4] = format: cell-based, human
SH-SY5Y cells [5] = format: cell-based, human; remark: listed apart in the source
[6] = thioperamide 300 nM plus imetit 100 nM

Chain of H3R (Q9Y5N1 whole entry, species assumed): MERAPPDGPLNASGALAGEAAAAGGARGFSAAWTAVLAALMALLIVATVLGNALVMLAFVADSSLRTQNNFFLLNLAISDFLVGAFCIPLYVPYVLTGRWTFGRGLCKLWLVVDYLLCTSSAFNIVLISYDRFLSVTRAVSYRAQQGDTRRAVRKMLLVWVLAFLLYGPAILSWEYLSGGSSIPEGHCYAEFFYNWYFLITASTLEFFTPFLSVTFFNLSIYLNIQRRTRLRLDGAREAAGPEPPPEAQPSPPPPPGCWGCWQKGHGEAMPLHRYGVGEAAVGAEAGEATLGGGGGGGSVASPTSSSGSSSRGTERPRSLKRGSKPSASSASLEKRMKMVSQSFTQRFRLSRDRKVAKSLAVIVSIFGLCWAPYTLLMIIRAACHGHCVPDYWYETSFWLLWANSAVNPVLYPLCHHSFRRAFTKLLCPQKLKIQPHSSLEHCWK

CCN(c1nc(N)c(C(=O)N=C(N)N)nc1Cl)C(C)C [EIPA, 5-(N-ethyl-N-isopropyl)amiloride]
inhibition of NHE activity (Na+/H+ exchanger (NHE); EIPA 10 uM): 50% | mean rate of Na+-dependent intracellular alkalinization (NHE activity) (Na+/H+ exchanger (NHE); EIPA 10 uM, control 0.074): 0.031 pHi units/min

N=C(N)SCCc1cnc[nH]1 [imetit, Imetit]
K+-elicited Ca2+ transients (SH-SY5Y-H3 cells [1]): markedly depressed | decrease in peak Cai concentration elicited by 100 mM K+ (SH-SY5Y-H3 cells [1]): 55% | concentration-response curve for K+-induced exocytosis of endogenous NE [2]: significantly shifted downwards | K+-elicited Cai transients (SH-SY5Y cells [3]): fails to affect Cai transients | effect on peak Cai concentration elicited by 100 mM K+ (SH-SY5Y cells [3]): failed to affect peak Cai concentration | inhibition of NHE activity (Na+/H+ exchanger (NHE); imetit 100 nM): 35% | rate of intracellular alkalinization, representative single cell (Na+/H+ exchanger (NHE); imetit 100 nM, cell of FIG. 1B, control cell 0.094): 0.050 pHi units/min | final pHi after re-introduction of Na+ (Na+/H+ exchanger (NHE); imetit 100 nM, n=277 cells): 6.61±0.01 | initial pHi (Na+/H+ exchanger (NHE); imetit-treated cells, n=277): 6.74±0.01 | pHi right before Na+ was reintroduced (0 Na pHi) (Na+/H+ exchanger (NHE); imetit-treated cells, n=277): 6.26±0.01 | cells with rates lower than the mean control rate of 0.074 pHi units/min (Na+/H+ exchanger (NHE); imetit-treated, 277 cells): 77% | EC50 (H3R): 2 nM | concentration-response curve for K+-induced exocytosis of [3H]NE (SH-SY5Y-H3 cells [4]): significantly shifted downwards

S=C(NC1CCCCC1)N1CCC(c2c[nH]cn2)CC1 [thioperamide, Thioperamide]
effect on imetit-induced depression of the rise in Cai concentration (SH-SY5Y-H3 cells [1]; [6]): completely prevented | effect on the imetit response of Ca2+ transients (SH-SY5Y-H3 cells [1]; [6]): prevented | effect on imetit-induced attenuation of endogenous NE exocytosis [2]: prevented | effect on NHE activity (Na+/H+ exchanger (NHE); thioperamide 300 nM alone): did not significantly modify NHE activity | effect on imetit-induced NHE attenuation (Na+/H+ exchanger (NHE); [6]): abolished the imetit-induced NHE attenuation | effect on imetit-induced attenuation of [3H]NE exocytosis (SH-SY5Y-H3 cells [4]): prevented

ω-conotoxin GVIA [ω-CTX]
increase in peak Cai concentration on K+ depolarization (SH-SY5Y-H3 cells [1]): markedly attenuated | concentration-response curve for K+-induced exocytosis of endogenous NE [2]: shifted markedly downwards | concentration-response curve for K+-induced exocytosis of [3H]NE (SH-SY5Y cells [5]): shifted markedly downwards | increase in peak Cai concentration on K+ depolarization (SH-SY5Y cells [3]): markedly attenuated | concentration-response curve for K+-induced exocytosis of [3H]NE (SH-SY5Y-H3 cells [4]): shifted markedly downwards

— patent US6884809B2 (Cornell Research Foundation, Inc., priority 2001, dated 2005)
